Consider 13 compounds from PubChem BioAssay (NCI).

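Values below derive from 48-hour exposures of cells grown in 96-well plates, with endpoints linearly interpolated between the two concentrations bracketing the appropriate inhibition level. TGI is the concentration that stops growth completely.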

Among the test systems are TK-10 renal; NCI-H522 lung; SNB-75 CNS; OVCAR-3 ovarian; SR leukemia; HOP-62 NSCLC; CCRF-CEM leukemia; UO-31 renal; NCI-H226 lung; EKVX NSCLC; MDA-N; RPMI-8226 leukemia.
Common to all, as to assay: inhibition of tumour cell growth, NCI panel, 48 h

Consider `CSc1ccc2c(cc1=O)[C@@H](NC(=O)c1cc(O)c(O)c(O)c1)CCc1cc(O)c(O)c(O)c1-2`, for which the TGI was over 100 µM in the assay with TK-10 renal; 44.4 µM with NCI-H522 lung; 53.7 µM in the assay on SNB-75 CNS; 70 µM in the assay on OVCAR-3 ovarian; 50.9 µM in the assay on SR leukemia; over 100 µM in the assay with HOP-62 NSCLC. For the same compound, the TGI in the assay with CCRF-CEM leukemia turned out to be 18.1 µM; with UO-31 renal, 83.8 µM; in the assay on NCI-H226 lung it was 35 µM; with EKVX NSCLC it was 56.7 µM.

Turning to `O=Cc1ccc(-c2ccc(-c3ccc(CO)s3)o2)s1`, the TGI was 0.627 µM with TK-10 renal; 47.7 µM in the assay on NCI-H522 lung; 69.1 µM in the assay with SNB-75 CNS; 2.74 µM in the assay with SR leukemia; over 84.3 µM in the assay with HOP-62 NSCLC; over 23.7 µM in the assay on CCRF-CEM leukemia. Besides, the TGI in the assay with UO-31 renal was over 71.3 µM; in the assay with NCI-H226 lung, 0.291 µM; in the assay on EKVX NSCLC, over 69.1 µM.

As for `Cc1cc(C)nc(NC(P(=O)(O)O)P(=O)(O)O)n1`, the TGI in the assay on TK-10 renal, in the assay with NCI-H522 lung, in the assay on OVCAR-3 ovarian, with HOP-62 NSCLC, with UO-31 renal and in the assay on NCI-H226 lung was over 100 µM in each case. The TGI with MDA-N and in the assay with EKVX NSCLC was over 100 µM in each case.

In the case of `C1=NC(N(Cc2ccccc2)Cc2ccccc2)N(Cc2ccccc2)N1` (stereo not given), the TGI in the assay with TK-10 renal came to 86.4 µM; in the assay on NCI-H522 lung, 40.9 µM; in the assay on SNB-75 CNS it was 62.8 µM; in the assay with OVCAR-3 ovarian, 27.3 µM; with RPMI-8226 leukemia, 32.9 µM; in the assay with HOP-62 NSCLC it was 32.7 µM. The TGI with CCRF-CEM leukemia is over 100 µM; with UO-31 renal it was 33.9 µM; in the assay on NCI-H226 lung, 33.5 µM; in the assay on EKVX NSCLC it was 56.2 µM.

For `CC(=O)OCCOCNC(=S)N/N=C/c1ccc([N+](=O)[O-])s1`, the TGI with TK-10 renal is over 100 µM; in the assay with NCI-H522 lung, 24.5 µM; with SNB-75 CNS it was over 100 µM; in the assay with OVCAR-3 ovarian, over 100 µM; with RPMI-8226 leukemia, over 100 µM; with SR leukemia it was over 100 µM. The TGI with HOP-62 NSCLC, with CCRF-CEM leukemia, in the assay with UO-31 renal, in the assay with NCI-H226 lung and in the assay on EKVX NSCLC was over 100 µM in each case.

Consider `N/C(=N\S(=O)(=O)c1ccc(-c2ncccc2C(F)(F)F)s1)Nc1ccc(Cl)cc1`, for which the TGI with TK-10 renal is 26.2 µM; with NCI-H522 lung it was 23.6 µM; with SNB-75 CNS, 40 µM; with OVCAR-3 ovarian, 38.7 µM; with RPMI-8226 leukemia it was over 100 µM; with SR leukemia it was 46.4 µM. Moreover, the TGI with HOP-62 NSCLC was found to be 38.3 µM; in the assay with UO-31 renal, 38.4 µM; in the assay on NCI-H226 lung, 41.4 µM; in the assay with EKVX NSCLC, 19 µM.

For the compound `O=C1OCC2OC(=O)c3cc(O)c(O)c(O)c3-c3c(O)c(O)c(O)c4c3C(=O)OC(C2OC(=O)c2cc(O)c(O)c(O)c2-c2c1cc(O)c(O)c2O)C1OC(=O)C2C4=C(O)C(=O)C23Oc2cc(O)c4c(c2[C@H]13)O[C@H](c1ccc(O)c(O)c1)[C@@H](O)C4` (stereo not given in full), the TGI in the assay with NCI-H522 lung is 50.4 µM; with SNB-75 CNS, 76 µM; in the assay with OVCAR-3 ovarian, 83.4 µM; with RPMI-8226 leukemia, 64.4 µM; with SR leukemia it was over 100 µM; in the assay on HOP-62 NSCLC, over 100 µM. Besides, the TGI in the assay with CCRF-CEM leukemia was over 100 µM; in the assay on UO-31 renal, over 100 µM; in the assay with NCI-H226 lung, 35.6 µM; with EKVX NSCLC it was 42.7 µM.

For the compound `CC(=O)O[C@@]12CO[C@@H]1CC(O)[C@@]1(C)C(=O)[C@H](O)C3=C(C)C(O)C[C@@](O)(C(OC(=O)c4ccccc4)C12)C3(C)C` (stereo not given in full), the TGI with TK-10 renal was over 100 µM; with SNB-75 CNS, 5.7 µM; in the assay with RPMI-8226 leukemia, over 100 µM; in the assay with SR leukemia, over 100 µM; in the assay on HOP-62 NSCLC, over 100 µM; with CCRF-CEM leukemia it was over 100 µM. Further, the TGI in the assay on UO-31 renal, in the assay with NCI-H226 lung and with EKVX NSCLC was over 100 µM in each case.

`CCOC(=O)C(Cc1ccc(O)cc1)Nc1nc(=O)c2c(=O)oc(Cl)cc2o1` (stereo not given): the TGI in the assay with TK-10 renal came to 20.6 µM; in the assay with NCI-H522 lung, 19.9 µM; in the assay with SNB-75 CNS, 18.6 µM; in the assay with OVCAR-3 ovarian, 20 µM; in the assay with RPMI-8226 leukemia, 8.59 µM; with SR leukemia, 7.53 µM. In addition, the TGI in the assay on HOP-62 NSCLC is 26.7 µM; in the assay with CCRF-CEM leukemia, 23.4 µM; with UO-31 renal it was 23.8 µM; in the assay with NCI-H226 lung, 42.5 µM; in the assay on EKVX NSCLC, 25.5 µM.

As to `Cc1n[n+](Cc2ccccc2)c2sc(N)nn12`, the TGI in the assay on TK-10 renal was over 100 µM; in the assay with NCI-H522 lung, 76.2 µM; with SNB-75 CNS it was over 100 µM; in the assay with OVCAR-3 ovarian it was over 100 µM; with RPMI-8226 leukemia, over 100 µM; in the assay with HOP-62 NSCLC it was over 100 µM. Besides, the TGI in the assay with CCRF-CEM leukemia, in the assay with UO-31 renal, in the assay with NCI-H226 lung, in the assay on MDA-N and with EKVX NSCLC was over 100 µM in each case.

Consider `COCn1cnc2c(=O)nc(SC)n(-c3ccccc3)c21`, for which the TGI with TK-10 renal, in the assay on NCI-H522 lung, in the assay with SNB-75 CNS, in the assay with OVCAR-3 ovarian, in the assay on RPMI-8226 leukemia and with HOP-62 NSCLC was over 100 µM each time. The TGI in the assay with CCRF-CEM leukemia, with UO-31 renal, in the assay with NCI-H226 lung, in the assay with MDA-N and in the assay with EKVX NSCLC was over 100 µM throughout.

Turning to `CCOC(=O)CCC(NC(=O)c1ccc(NCc2ccc3nc(-c4ccccc4)c(Cl)nc3c2)cc1)C(=O)OCC` (stereo not given), the TGI with TK-10 renal was over 100 µM; in the assay with NCI-H522 lung, 57.8 µM; with SNB-75 CNS, over 100 µM; in the assay with OVCAR-3 ovarian it was 59.2 µM; with RPMI-8226 leukemia it was 81.2 µM; in the assay on SR leukemia it was over 100 µM. The TGI in the assay on HOP-62 NSCLC was over 100 µM; in the assay with CCRF-CEM leukemia, over 100 µM; with UO-31 renal, 65.8 µM; in the assay on NCI-H226 lung, over 100 µM; with EKVX NSCLC it was over 100 µM.

In the case of `COCCn1cnc2c(Cl)nc(Nc3ccccc3)nc21`, the TGI in the assay with TK-10 renal was over 100 µM; in the assay on SNB-75 CNS, over 100 µM; in the assay with OVCAR-3 ovarian, 34.1 µM; with RPMI-8226 leukemia, over 100 µM; with SR leukemia, over 100 µM; with HOP-62 NSCLC it was over 100 µM. In addition, the TGI in the assay with CCRF-CEM leukemia was 46.9 µM; in the assay on NCI-H226 lung, over 100 µM; in the assay on EKVX NSCLC, 51.9 µM.
